# A melting point compilation (Tetko et al.; mined from patent text by program, amines drawn as free bases though some values may be those of a salt)
row,Structure (SMILES),melting point [°C]
1,Cn1c(-c2ccccc2Cl)c2ccsc2nc1=O,190 to 192
2,CCCc1ccc(OCc2ccc(OCc3nc(-c4ccccc4)oc3C)cc2)c(CC(=O)O)c1,116 to 117
3,Clc1cccc(CSc2nnc(-c3ccc4occc4c3)o2)c1,125 to 126
4,CC(C)(C)OC(=O)c1ncn2c1[C@@H]1CCCN1C(=O)c1sccc1-2,226 to 227
5,NS(=O)(=O)c1cc(C(=O)O)c(NCc2ccccc2)cc1Oc1ccccc1,237 to 239
6,CN(C)N=C(CCC(=O)O)c1ccc(-c2ccc(Cl)cc2)cc1,158 to 160
7,OC12CC3CC(CC(C3)C1=C1C3CC4CC(C3)CC1C4)C2,212 to 213
8,Nn1c(=O)c(=O)[nH]c2c(Br)cc(Br)cc21,273 to 275
9,O=c1c2ccccc2nc(-c2cc(-c3ccncc3)c(N3CCOCC3)s2)n1-c1ccccc1Cl,179 to 180
10,CCOP(=O)(/C=C/c1cn(-c2ccccc2)nc1OCc1ccc(OCc2nc(-c3ccc(C)c(C(=O)O)c3)oc2CC)c(OC)c1)OCC,165 to 166
11,CCCCCCc1ccc(/C(Cl)=C/c2ccc(Br)cc2)cc1,52
12,O=[N+]([O-])c1cccc(-c2nc(-c3ccccc3)cc3cccnc23)c1,172 to 175
13,Cc1oc(-c2ccccc2)nc1CCc1ccc(C=CC=O)cc1,99 to 100
14,Cc1ccc(N2CCCN(c3ccnc4sc(C(N)=O)c(N)c34)CC2)nc1,205 to 208
15,COc1ccc(CCCNC(=O)N(C)O)cc1OC,99 to 100
16,O=C(O)Cc1cc(OCc2ccccc2)ccc1OCc1ccccc1,95.5 to 100
17,CC(=O)Nc1cc(F)ccc1SCC#N,113 to 115
18,CCN(CC)C(=O)c1cc2ccccc2c(-c2cccc(Cl)c2)n1,116
19,CC(=O)N(C#N)C/C=C\CN(C#N)C(C)=O,73.8 to 75.2
20,CC1(C=O)COC2(CCCCCCCCCCC2)OO1 (stereo unspecified),88 to 89
21,Cc1ccc(-n2nc(C(C)(C)C)cc2NC(=O)Nc2ccc(N(C)c3ccncc3)c3ccccc23)cc1,174 to 177
22,Cc1cccc2c1nc(COc1ccc(Cl)cc1)n2CCC(C)CN(C)C (racemic),80 to 82
23,CCn1cc(C(=O)O)c(=O)cc1-c1ccc(N(C)C)cc1,258 to 259
24,CCOC(=O)NC(=S)SCc1ccc(Cl)cc1,80
25,COc1nc(Cn2cncn2)cnc1NS(=O)(=O)c1cccc(Cl)c1Cl,95 to 105
26,CC(=O)OCC(C)C1=CCC2C3CC=C4CC(OC(C)=O)CC(OC(C)=O)C4(C)C3CCC12C (stereo unspecified),116 to 118

row,Structure (SMILES),melting point [°C]
1,CNC(=O)Nc1snc(SC)c1C#N,286
2,CC(C)CC(=O)c1c(-c2ccc3cc(O)cc(Br)c3c2)oc2ccccc12,160 to 161
3,CCS(=O)(=O)Nc1cc(-n2ncc(N(C)C)c(Cl)c2=O)c(F)cc1C#N,206
4,COc1cc(O)c(C(=O)C=Cc2cccn2C)c(OC)c1,140
5,NC(=O)N(O)Cc1cccc(OCCc2csc(-c3ccc(C(F)(F)F)cc3)n2)c1,118 to 120
6,CC1(c2ccccc2)OC(C=Cc2ccc(C#N)cc2)=CC1=O (stereo unspecified),187 to 188
7,NC(=O)Oc1cccc2ccccc12,118
8,CC(C#N)(COc1ccc(Cl)cc1Cc1ccccc1)NC(=O)c1ccc(OC(F)(F)F)cc1 (stereo unspecified),103 to 104
9,C#Cc1cc(Nc2ncnc3cnc(NC(=O)/C=C/CN(C)C)cc23)ccc1F,152 to 155
10,COC(=O)NCC(=CF)c1ccccc1,73 to 74
11,CC(=O)N(C1=C(Cl)C(=O)c2c(cnn2C)C1=O)C1CC1,171
12,CCCCCCCCC#Cc1c(F)ccc(C(=O)O)c1F,117
13,CC1(C)Oc2ccc(S(=O)(=O)Nc3ccccc3)cc2C(N2CCCCC2=O)C1O (stereo unspecified),272 to 276
14,Cc1ncccc1Oc1ccc(C(=N)Nc2cc(Cl)cc(NC(=O)C=Cc3ccccc3C(F)(F)F)c2)cc1,114 to 119
15,CC(C)(CNC(=O)/C(CCO)=C(\c1ccc(Cl)cc1)c1ccc(S(C)(=O)=O)cc1)SN=O,150 to 153
16,CC(NC(=O)C=Cc1ccc(C(C)(C)C)cc1)c1ccc(NS(C)(=O)=O)c(F)c1 (stereo unspecified),154 to 156
17,COc1cccc(CCOc2cccc(-c3cccc(C(=O)O)c3)n2)c1,156 to 157
18,Cc1c(C)c2c(c(C)c1OCc1ccccc1)C(c1ccc(N(C)C)cc1)C(C)(C)O2 (stereo unspecified),110 to 112
19,COc1cccc2c(Cl)nc(Cl)nc12,155 to 157
20,ClCc1coc(-c2ccc3ccccc3c2)n1,116 to 117
21,O=C(O)c1cccc(-c2ccc3c(c2)C(c2ccc(Cl)cc2Cl)CO3)c1 (stereo unspecified),192 to 193
22,NS(=O)(=O)c1cccc(NC(=O)c2cnn3c(C(F)F)cc(-c4ccc(C(F)(F)F)cc4)nc23)c1,258
23,CC1=C(C(=O)O)C(c2cccc([N+](=O)[O-])c2)C(C(=O)OCCC#N)=C(C)N1 (stereo unspecified),131 to 132
24,NCCCNC(=O)CCn1cnc2c(=O)[nH]cnc21,172 to 175
25,CC1=CC(COC(c2ccccc2)(c2ccccc2)c2ccccc2)O[C@@H]1c1coc(C#N)c1N (stereo partly specified),68
26,CC1(C)CC(c2c[nH]c(-c3ccc(F)cc3)c2-c2ccncc2)CC(C)(C)N1,242 to 243

row,Structure (SMILES),melting point [°C]
1,O=C(Nc1nnn[nH]1)c1cc(Cl)ccc1[N+](=O)[O-],268 to 269
2,CCOC(=O)C1=Cc2ccsc2S(=O)(=O)N1CCCOC,82 to 83
3,COc1cc(C)c(C(O)C#CC(F)(F)F)c(C)c1C (stereo unspecified),126 to 130
4,CC(C)C1C(C=C(Br)Br)=CC=CN1C12CC3CC(CC(C3)C1)C2 (stereo unspecified),176 to 177
5,COc1cc(C=C2SC(=S)N(c3ccc(O)cc3)C2=O)ccc1OC1OC(CO)C(O)C(O)C1NC(C)=O (stereo unspecified),234 to 236
6,FC(F)c1cc(-c2cccc(C(F)(F)F)c2)nc2ccnn12,127
7,CC(=O)OC1(C)CCC2C(C)(C)CCCC2(C)C1CCC(C)(O)C1CO1 (stereo unspecified),130 to 131
8,COC(=O)c1cccnc1N(C)C1CCN(Cc2ccccc2)CC1,109 to 110
9,C[C@]1(COc2ccc3cc(N4CCC(Oc5ccc(OC(F)(F)F)cc5)CC4)ccc3c2)Cn2cc([N+](=O)[O-])nc2O1,205 to 208
10,COc1ccc(OCc2ccccc2)cc1CC#N,63 to 65
11,CCCCc1nc2cccc(C(=O)OC)c2n1Cc1ccc(-c2ccccc2-c2nc(=S)o[nH]2)cc1,180 to 181
12,CC1(C)OC(=O)Nc2ccc(-c3ccc(CC#N)c(F)c3)cc21,253 to 256
13,C#CC(C)(C)N1CCC(N2CCN(CCCN3CCCCC3)C2=C(C#N)C#N)CC1,112 to 115
14,CC(ON1C(C)(C)CC(O)CC1(C)C)C(=O)NCCCN(C)C (stereo unspecified),85 to 88
15,O=C(NCC(O)C(=O)O)c1cc2cc(Cl)ccc2[nH]1 (racemic),214 to 215
16,COc1cc2cc(-c3cccnc3)nc(-c3ccccc3)c2cc1OC,176 to 177
17,NS(=O)(=O)c1ccc(SCCCO)c(C(=O)O)c1,204 to 206
18,O=CN1CCN(c2ncc3c(=O)c(C(=O)O)c[nH]c3n2)CC1,> 300
19,CC(C)C(C#N)C(=O)NC(N)=O (stereo unspecified),173 to 174
20,COC(=O)CC(=O)c1cc(OC)c2c(c1)OCO2,65.5 to 66.5
21,CCOC(=O)C(=O)Nc1cccc2ccccc12,105 to 107
22,Fc1c(Cl)cccc1/C=C/c1noc(C(Cl)(Cl)Cl)n1,37 to 38
23,COc1cc2c(cc1-c1c(C)nn(C)c1C)-c1c(-c3cccs3)c3c(n1CC2)C(=O)N(C(C)C)CCN(C(=O)OC(C)(C)C)C3,232 to 234
24,Clc1ccc2ccc(COc3ccc4c(c3)C(SCCc3nnn[nH]3)c3ccccc3CO4)nc2c1 (stereo unspecified),142 to 147
25,Clc1cccc(CC[C@H]2CN(Cc3ccccc3)CCN2Cc2ccccc2)c1,56 to 60
26,CCCCCC[C@H](C)Oc1ccc(-c2ccc(O)c([N+](=O)[O-])c2)cc1,40

row,Structure (SMILES),melting point [°C]
1,O=C(NCCNC(=O)C1CCN(c2c(Cl)cncc2Cl)CC1)c1ccccc1,209 to 211
2,FC(F)(F)c1cc(Nc2nc3ccccc3o2)ccc1Cl,199 to 200
3,COCOc1c(NC(=O)N(CCCCCC(=O)O)c2ccccc2)cc(OC)cc1C(C)(C)C,109 to 111
4,Nc1cc([N+](=O)[O-])c2c(c1N)CCCC2,181 to 182
5,CCOC(=O)c1ccc(/C=C(\C)c2ccc3c(c2)C(C)(C)CCCC3)cc1,69 to 70
6,CC#CCOc1ccc(S(=O)C(C(=O)NO)c2ccc(Cl)cc2)cc1 (stereo unspecified),92
7,O=C(Cn1ccnc1)C12CC3CC(CC(C3)C1)C2,130
8,CC(C)n1c(NN)nc2ccccc2c1=O,123 to 124
9,Cc1cc(N)c(C)c(Cl)c1Oc1ccc(Cl)c2ccccc12,118 to 125
10,COc1ccc(C(=O)C2C(Cl)=CC=CC2(C)Cl)cc1Br (stereo unspecified),159
11,CCOC(=O)c1cn(C2CC2)c2c(CN3CCCC3)c(N3CCOCC3)c(F)cc2c1=O,227 to 232
12,CC(=O)OCCn1c([N+](=O)[O-])cnc1C,143 to 145
13,N#Cc1ccc(OCc2cccnc2)cc1OC(CCC(=O)O)c1cccc2c1OCO2 (racemic),181 to 183
14,O=C(c1ccccc1)N1CCN(Cc2ccccc2)CCN1C(=O)c1ccccc1,135 to 138
15,Cc1c(C)c2c(c(C)c1O)SC(c1ccccc1O)O2 (stereo unspecified),175 to 176
16,Cc1cc(OC(F)F)c([N+](=O)[O-])cc1S(=O)(=O)N(C)C,125 to 126
17,Nc1nc(SCc2nc(C3CC3)no2)ncc1Cc1ccccc1,94
18,COc1cc(C)cc(C(O)=S)c1OC,139 to 141
19,CC1(C)NCC(=O)N1CC(N)=O,144 to 146
20,CC(C)(C)c1ccc(COc2ccc(S(=O)(=O)NC[C@@H](C(=O)NO)N3CCOCC3)cc2)cc1,137
21,CCOC(=O)CSc1nc(Cl)cc(Nc2cccc(C)c2C)n1,88 to 93
22,COc1ccc(-c2nc(Sc3ccc(F)cc3)[nH]c2-c2ccc(OC)cc2)cc1,106
23,CS(=O)(=O)c1cn(CC2=NCCN2)c2ccc(N)cc12,215 to 217
